From patent publication US20080058409A1, “Esterified Catechins, Processes for Producing the Same, and Foods and Beverages as well as Cosmetics Containing Such Esterified Catechins” (priority 2005, published 2008)

Columns and labels:
[1] = system: Bacillus subtilis spores; assay: Assay of antibacterial activity (growth inhibition, absorbance at 690 nm) against Bacillus subtilis spores; type: cell-based; details: spores 1×10^7/ml, nutrient broth pH 7.0, cultured overnight at 37° C., percent growth inhibition from absorbance at 690 nm
Experimental: (§1) Into each well, 50 μl of a nutrient broth (pH 7.0, NISSUI PHARMACEUTICAL CO., LTD.) was added and cultured overnight at 37° C. The light absorbance at 690 nm was measured both at the start and end of the culture by means of a micro-plate reader (Thermolab Systems, Finland). Based on the percent growth inhibition calculated from the following formula, a distribution diagram was constructed plotting percent inhibition and sample concentration on the two axes and the 50% inhibition (IC50) of the spore forming bacterium by the substances of the present invention was determined. Percent growth inhibition (%)=100×{Δ690 (not added)−Δ690 (sample added)}/Δ690 (not added) where Δ690 (not added) refers to the difference between the 690 nm values in the “not-added” group before and after the culture and Δ690 (sample added) refers to the difference between the 690 nm values in the “sample-added” group before and after the culture.

[2] = system: Alicyclobacillus acidoterrestris; assay: Assay of antibacterial activity (growth inhibition) against heat-resistant acidophilic spore-forming bacterium Alicyclobacillus acidoterrestris; type: cell-based; details: culture temperature 45° C., liquid medium (yeast extract, soluble starch, glucose) adjusted to pH 3.8
Experimental: as §1
Activity against the heat-resistant acidophilic spore-forming bacterium Alicyclobacillus acidoterrestris was determined by taking the same procedure, except that a change was made in two points, the culture temperature condition and the type of liquid medium [culture temperature: 45° C.; liquid medium: 0.4% dry yeast extract (Difco Laboratories), 0.4% soluble starch (nacalai tesque), 1% glucose (nacalai tesque), adjusted to pH 3.8 with 1 N sulfuric acid].

Compound | IC50 (ppm) B. subtilis [1] | IC50 (ppm) A. acidoterrestris [2]
3′(or 4′),3-di-O-octanoyl-(+)-D-catechin | 3.125-6.25 ppm | 6.25-12.5 ppm
3′(or 4′),5-di-O-octanoyl-(+)-D-catechin | 6.25-12.5 ppm | 6.25-12.5 ppm
3′(or 4′),7-di-O-octanoyl-(+)-D-catechin | 6.25-12.5 ppm | 50-100 ppm
3′-O-cotanoyl and 4′-octanoyl-(+)-D-catechin | 200-400 ppm | 25-50 ppm
CCCCCCCC(=O)Oc1cc(O)cc2c1C[C@H](OC(=O)CCCCCCC)[C@@H](c1ccc(O)c(O)c1)O2 [3,5-di-O-octanoyl-(+)-D-catechin] | 100-200 ppm | 50-100 ppm
CCCCCCCC(=O)Oc1cc(O)c2c(c1)O[C@H](c1ccc(O)c(O)c1)[C@@H](OC(=O)CCCCCCC)C2 [3,7-di-O-octanoyl-(+)-D-catechin] | 25-50 ppm | 12.5-25 ppm
CCCCCCCC(=O)Oc1ccc([C@H]2Oc3cc(O)cc(O)c3C[C@@H]2O)cc1OC(=O)CCCCCCC [3′4′-O-dioctanoyl-(+)-D-catechin] | >400 ppm | 12.5-25 ppm
CCCCCCCC(=O)Oc1cc(OC(=O)CCCCCCC)c2c(c1)O[C@H](c1ccc(O)c(O)c1)[C@@H](O)C2 [5,7-di-O-octanoyl-(+)-D-catechin] | >400 ppm | 100-200 ppm
Catechin [reference compound] | >400 ppm | 50-100 ppm
Sucrose fatty acid ester [reference compound] | 50-100 ppm | 100-200 ppm
